Experimental data from patent US11413286B2, “Producing astrocytes using small molecules” (CITY OF HOPE, priority 2016, dated 2022).

system: reprogramming efficiency; assay: Enhancement of reprogramming efficiency by OAC compounds; assay type: cell-based; conditions: not given

| Structure (SMILES) | Enhance reprogramming efficiency |
| --- | --- |
| O=C(Nc1cc2cc[nH]c2cn1)c1ccccc1 [Compound C1] | YES |
| O=C(Nc1ccc2[nH]ccc2c1)c1ccccc1 [Compound C2] | YES |
| O=C(Nc1ccc2[nH]ccc2c1)c1ccc(F)cc1 [Compound C3] | YES |

system: MEFs; assay: Direct reprogramming of MEFs into astrocytes, GFAP/S100β immunostaining; assay type: cell-based, mouse; conditions: MEFs treated for 25 days, GFAP immunostaining
Procedure: Cell culture. MEFs and TTFs were derived from E13.5 embryos of Oct4-GFP transgenic (OG2) mice (Szabo et al., 2002), wild type or GFAP-GFP transgenic mice (Jackson Laboratory) (Zhuo et al., 1997). These cells were cultured in MEF medium containing DMEM, 10% FBS, 0.1 mM nonessential amino acids, and 2 mM L-glutamine. Mouse primary astrocytes were isolated from P1-2 pups following published protocol ([…] et al., 2013) and cultured in DMEM containing 10% FBS. Direct reprogramming mouse fibroblasts into astrocytes. MEFs were plated on 6-well or 12-well plates at a cell density of 3×10^3 cells/cm^2. Cells were cultured in MEF medium for 24 hr, then changed to mouse induced astrocyte medium (iAM) containing knock-out DMEM with 10% knock-out serum replacer, 10% FBS, 2 mM L-glutamine, 0.1 mM NEAA, 0.1 mM β-mercaptoethanol, and 100 ng/ml FGF. Cells were treated with compounds, including […] valproaic acid (VPA) (Stemgent), 3 μM CHIR99021(D&C chemicals), 10 μM SB-431542 (D&C chemicals), 10 μM Tranylcypromine (Stemgent), and 1 μM OAC1(Li et al., 2012) for 10 days, replated onto Matrigel-coated plates (BD Biosciences) and continued with compound treatment for another 15 days. Cells were then switched to mouse astrocyte medium (AM) containing DMEM with 10% heat-inactivated FBS. Immunocytochemistry. […]

| Structure (SMILES) | induction of GFAP-positive cells from MEFs |
| --- | --- |
| Cc1cccc(-c2n[nH]cc2-c2ccc3ncccc3n2)n1 [Compound 6, 2-[5-(6-methylpyridin-2-yl)-1H-pyrazol-4-yl]-1,5-naphthyridine] | able to induce GFAP-positive cells |
| NC(=O)c1ccc(-c2nc(-c3ccc4c(c3)OCO4)c(-c3ccccn3)[nH]2)cc1 [S, 4-[4-(1,3-benzodioxol-5-yl)-5-pyridin-2-yl-1H-imidazol-2-yl]benzamide] | sufficient to induce GFAP-positive cells |

system: Oct4-luc; assay: Oct4-luc reporter induction by OAC compounds; assay type: cell-based; parameters: key to Oct4-luc Activity: Active: Compounds that induce Oct4-luc 1.8-fold or more were classified as being “active”; Inactive: molecules that induce Oct4-luc less than 1.8-fold were indicated as being “inactive”; conditions: not given

| Structure (SMILES) | Oct4-luc fold Induction [fold] | Oct4-luc Activity |
| --- | --- | --- |
| O=C(Nc1cc2cc[nH]c2cn1)c1ccccc1 [Compound C1] | 4.72 | Active |
| O=C(Nc1ccc2[nH]ccc2c1)c1ccccc1 [Compound C2] | 4.15 | Active |
| O=C(Nc1ccc2[nH]ccc2c1)c1ccc(F)cc1 [Compound C3] | 3.84 | Active |
| O=C(Nc1ccc2[nH]ncc2c1)c1ccc(F)cc1 [Compound C7] | 2.2 | Active |
| O=C(Nc1ccc2[nH]ncc2c1)c1ccccc1 [Compound C8] | 1.89 | Active |
| CCOc1ccc(C(=O)Nc2ccc3[nH]ncc3c2)cc1 [Compound C9] | 7.22 | Active |
| CCOc1cccc(C(=O)Nc2ccc3[nH]ncc3c2)c1 [Compound C14] | 2.67 | Active |
| COc1cccc(C(=O)Nc2ccc3[nH]ncc3c2)c1 [Compound C15] | 1.93 | Active |
| CN1CCC(c2c[nH]c3ccc(NC(=O)c4ccc(F)cc4)cc23)CC1 [Compound C16] | 1 | Inactive |
| Cc1ccc(C(=O)Nc2ccc3[nH]cc(C#N)c3c2)cc1 [Compound C17] | 1.1 | Inactive |
| O=C(Nc1ccc2[nH]ncc2c1)c1cccc(Br)c1 [Compound C20] | 1.48 | Inactive |
| O=C(Nc1ccc2[nH]ncc2c1)c1cccc(C(F)(F)F)c1 [Compound C21] | 1.48 | Inactive |
| O=C(Nc1ccc2[nH]ncc2c1)c1ccccc1F [Compound C22] | 1.5 | Inactive |
| O=C(Nc1ccc2[nH]ncc2c1)c1ccccc1Br [Compound C24] | 1.46 | Inactive |
| CCOc1ccccc1C(=O)Nc1ccc2[nH]ncc2c1 [Compound C26] | 1.22 | Inactive |
| COc1cccc(C(=O)Nc2ccc3[nH]ncc3c2)c1OC [Compound C27] | 1.37 | Inactive |
| CCOc1ccc(C(=O)Nc2ccc3[nH]ncc3c2)cc1OCC [Compound C30] | 1 | Inactive |

More lines, main results first:

| Oct4-luc fold Induction [fold] | Structure (SMILES) | Oct4-luc Activity |
| --- | --- | --- |
| 5.46 | COc1ccc(C(=O)Nc2ccc3[nH]ccc3c2)cc1 [Compound C4] | Active |
| 2.87 | O=C(Nc1ccc2[nH]ccc2c1)c1ccc2nonc2c1 [Compound C5] | Active |
| 3.18 | COc1ccc(C(=O)Nc2ccc3[nH]ncc3c2)cc1 [Compound C6] | Active |
| 4.51 | CCc1ccc(C(=O)Nc2ccc3[nH]ncc3c2)cc1 [Compound C10] | Active |
| 3.78 | CC(C)c1ccc(C(=O)Nc2ccc3[nH]ncc3c2)cc1 [Compound C11] | Active |
| 3.6 | O=C(Nc1ccc2[nH]ncc2c1)c1ccc(Cl)cc1Cl [Compound C12] | Active |
| 2.78 | Cc1ccc(C(=O)Nc2ccc3[nH]ncc3c2)cc1C [Compound C13] | Active |
| 1.27 | O=C(Nc1ccc2[nH]ncc2c1)c1cccc(F)c1 [Compound C18] | Inactive |
| 1.65 | O=C(Nc1ccc2[nH]ncc2c1)c1cccc(Cl)c1 [Compound C19] | Inactive |
| 1.72 | O=C(Nc1ccc2[nH]ncc2c1)c1ccccc1Cl [Compound C23] | Inactive |
| 1.5 | COc1ccccc1C(=O)Nc1ccc2[nH]ncc2c1 [Compound C25] | Inactive |
| 1.42 | COc1ccc(C(=O)Nc2ccc3[nH]ncc3c2)c(OC)c1 [Compound C28] | Inactive |
| 1.13 | COc1ccc(C(=O)Nc2ccc3[nH]ncc3c2)cc1OC [Compound C29] | Inactive |
| 1 | O=C(Nc1ccc2[nH]nnc2c1)c1cccc(Cl)c1 [Compound C31] | Inactive |
| 1.3 | Cc1nc2cc(NC(=O)c3ccc([N+](=O)[O-])cc3)ccc2[nH]1 [Compound C32] | Inactive |
